Results as given in US20250147039A1, “Compounds for complexation of rare earth elements and/or s-, p-, d- block metals, their coordination compounds, peptide conjugates, method of their preparation and use thereof” (USTAV ORGANICKE CHEMIE A BIOCHEMIE AV CR V.V.I., priority 2021, published 2025).

Key:
[1] = Dissociation of chelates in aq. 6.0M HCl at 80° C. (acid decomplexation kinetic inertness) (Chart 17); format: physicochemical
[2] = Alkali metal dependent formation of 1,5-cz-Lig and 1,4-cz-Lig isomers from Lig at pH 10.2 (Chart 14); format: physicochemical; conditions: B: 1 day at 80° C., Borate/(M^I)2CO3 buffer pH 10.2; for conversion to 1,4-cz-Lig isomer, Li^I / conversion to 1,5-cz-Lig isomer, Li^I: visible analyte free precipitate
[3] = Formation of 1,5-cz-[M(Lig)] from Lig and M^III ions (metal dependent click-zip) (Charts 4, 5); format: physicochemical; conditions: MOPS/NaOH buffer pH 7.0, TD728, TD827 in 50% i-PrOH; for conversion to 1,5-cz-[M(Lig)], Y^III: TD714 sum of two diastereoisomers
[4] = Formation of 1,5-cz-[Ln(Lig)] from Lig and Ln^III ions (metal dependent click-zip), MOPS/NaOH buffer pH 7.0, analytical HPLC (Charts 1, 2)
[5] = after 1 week at 80° C., MOPS/NaOH buffer pH 7.0
[6] = after 1 hour at 80° C., MOPS/NaOH buffer pH 7.0
[7] = after 1 week at 80° C., 50% i-PrOH in aq. MOPS/NaOH Buffer pH 7.0
[8] = after 1 hour at 80° C., 50% i-PrOH in aq. MOPS/NaOH Buffer pH 7.0

O=C1C[N@@]2CC[N@]3CC[N@@](CC[N@](CC2)Cc2cccc(n2)-c2cnnn2Cc2cc(-c4ccc(C(=O)O)cc4)cc(n2)C3)CC(=O)[O][Lu][O]1 [TD748]
fraction of intact chelate ([1]; 1 month): 97%
fraction of intact chelate ([1]; 1 week): 100%
fraction of intact chelate ([1]; 1 hour): 100%
fraction of intact chelate ([1]; 1 day): 100%

NCc1nnn2c1-c1cccc(n1)C[N@]1CC[N@]3CC[N@@](CC[N@@](CC1)CC(=O)[O][Lu][O]C(=O)C3)Cc1cc(-c3ccccc3)cc(n1)C2 [TD735]
fraction of intact chelate ([1]; 1 month): 98%
fraction of intact chelate ([1]; 1 week): 99%
fraction of intact chelate ([1]; 1 hour): 100%
fraction of intact chelate ([1]; 1 day): 100%

C#Cc1cccc(CN2CCN(CP(=O)(O)O)CCN(Cc3cccc(CN=[N+]=[N-])n3)CCN(CP(=O)(O)O)CC2)n1 [TD581]
conversion to 1,4-cz-Lig isomer, Cs^I [2]: 31%
conversion to 1,4-cz-Lig isomer, K^I [2]: 32%
conversion to 1,4-cz-Lig isomer, Na^I [2]: 26%
conversion to 1,4-cz-Lig isomer, Rb^I [2]: 32%
conversion to 1,5-cz-Lig isomer, Cs^I [2]: 6%
conversion to 1,5-cz-Lig isomer, K^I [2]: 7%
conversion to 1,5-cz-Lig isomer, Na^I [2]: 25%
conversion to 1,5-cz-Lig isomer, Rb^I [2]: 7%
conversion to 1,4-cz-Lig isomer, Li^I [2]: 19%
conversion to 1,5-cz-Lig isomer, Li^I [2]: 10%

C#Cc1cccc(CN2CCN(CP(=O)(O)OCC)CCN(Cc3cccc(CN=[N+]=[N-])n3)CCN(CP(=O)(O)OCC)CC2)n1 [TD582]
conversion to 1,5-cz-[M(Lig)], Sc^III ([3]; 1 week at 80° C.): 0%
conversion to 1,5-cz-[M(Lig)], Y^III ([3]; 1 week at 80° C.): 68%
conversion to 1,5-cz-[M(Lig)], Sc^III ([3]; 1 hour at 80° C.): 0%
conversion to 1,5-cz-[M(Lig)], Y^III ([3]; 1 hour at 80° C.): 11%
conversion to 1,4-cz-Lig isomer, Cs^I [2]: 26%
conversion to 1,4-cz-Lig isomer, K^I [2]: 25%
conversion to 1,4-cz-Lig isomer, Na^I [2]: 2%
conversion to 1,4-cz-Lig isomer, Rb^I [2]: 25%
conversion to 1,5-cz-Lig isomer, Cs^I [2]: 10%
conversion to 1,5-cz-Lig isomer, K^I [2]: 11%
conversion to 1,5-cz-Lig isomer, Na^I [2]: 69%
conversion to 1,5-cz-Lig isomer, Rb^I [2]: 10%
conversion to 1,4-cz-Lig isomer, Li^I [2]: 3%
conversion to 1,5-cz-Lig isomer, Li^I [2]: 53%
conversion to 1,5-cz-[Ln(Lig)], Ce^III [4, 5]: 0%
conversion to 1,5-cz-[Ln(Lig)], Ce^III [4, 6]: 0%
conversion to 1,5-cz-[Ln(Lig)], Dy^III [4, 5]: 85%
conversion to 1,5-cz-[Ln(Lig)], Dy^III [4, 6]: 18%
conversion to 1,5-cz-[Ln(Lig)], Er^III [4, 5]: 74%
conversion to 1,5-cz-[Ln(Lig)], Er^III [4, 6]: 15%
conversion to 1,5-cz-[Ln(Lig)], Eu^III [4, 5]: 87%
conversion to 1,5-cz-[Ln(Lig)], Eu^III [4, 6]: 14%
conversion to 1,5-cz-[Ln(Lig)], Gd^III [4, 5]: 86%
conversion to 1,5-cz-[Ln(Lig)], Gd^III [4, 6]: 15%
conversion to 1,5-cz-[Ln(Lig)], Ho^III [4, 5]: 79%
conversion to 1,5-cz-[Ln(Lig)], Ho^III [4, 6]: 16%
conversion to 1,5-cz-[Ln(Lig)], La^III [4, 5]: 0%
conversion to 1,5-cz-[Ln(Lig)], La^III [4, 6]: 0%
conversion to 1,5-cz-[Ln(Lig)], Lu^III [4, 5]: 26%
conversion to 1,5-cz-[Ln(Lig)], Lu^III [4, 6]: 5%
conversion to 1,5-cz-[Ln(Lig)], Nd^III [4, 5]: 60%
conversion to 1,5-cz-[Ln(Lig)], Nd^III [4, 6]: 6%
conversion to 1,5-cz-[Ln(Lig)], Pr^III [4, 5]: 17%
conversion to 1,5-cz-[Ln(Lig)], Pr^III [4, 6]: 5%
conversion to 1,5-cz-[Ln(Lig)], Sm^III [4, 5]: 86%
conversion to 1,5-cz-[Ln(Lig)], Sm^III [4, 6]: 12%
conversion to 1,5-cz-[Ln(Lig)], Tb^III [4, 5]: 82%
conversion to 1,5-cz-[Ln(Lig)], Tb^III [4, 6]: 18%
conversion to 1,5-cz-[Ln(Lig)], Tm^III [4, 5]: 68%
conversion to 1,5-cz-[Ln(Lig)], Tm^III [4, 6]: 14%
conversion to 1,5-cz-[Ln(Lig)], Yb^III [4, 5]: 59%
conversion to 1,5-cz-[Ln(Lig)], Yb^III [4, 6]: 12%

C#Cc1cccc(CN2CCNCCN(Cc3cccc(CN=[N+]=[N-])n3)CCN(CC(=O)O)CC2)n1 [TD703]
conversion to 1,4-cz-Lig isomer, Cs^I [2]: 20%
conversion to 1,4-cz-Lig isomer, K^I [2]: 20%
conversion to 1,4-cz-Lig isomer, Na^I [2]: 10%
conversion to 1,4-cz-Lig isomer, Rb^I [2]: 20%
conversion to 1,5-cz-Lig isomer, Cs^I [2]: 13%
conversion to 1,5-cz-Lig isomer, K^I [2]: 14%
conversion to 1,5-cz-Lig isomer, Na^I [2]: 75%
conversion to 1,5-cz-Lig isomer, Rb^I [2]: 14%
conversion to 1,4-cz-Lig isomer, Li^I [2]: 14%
conversion to 1,5-cz-Lig isomer, Li^I [2]: 24%

C#Cc1cccc(CN2CCN(CC(=O)O)CCN(Cc3cc(C#C[Si](C(C)C)(C(C)C)C(C)C)cc(CN=[N+]=[N-])n3)CCN(CC(=O)O)CC2)n1 [TD827]
conversion to 1,5-cz-[M(Lig)], Sc^III ([3]; 1 week at 80° C.): 55%
conversion to 1,5-cz-[M(Lig)], Y^III ([3]; 1 week at 80° C.): 96%
conversion to 1,5-cz-[M(Lig)], Sc^III ([3]; 1 hour at 80° C.): 2%
conversion to 1,5-cz-[M(Lig)], Y^III ([3]; 1 hour at 80° C.): 42%
conversion to 1,5-cz-[Ln(Lig)], Ce^III [4, 7]: 22%
conversion to 1,5-cz-[Ln(Lig)], Ce^III [4, 8]: 2%
conversion to 1,5-cz-[Ln(Lig)], Dy^III [4, 7]: 96%
conversion to 1,5-cz-[Ln(Lig)], Dy^III [4, 8]: 30%
conversion to 1,5-cz-[Ln(Lig)], Er^III [4, 7]: 96%
conversion to 1,5-cz-[Ln(Lig)], Er^III [4, 8]: 56%
conversion to 1,5-cz-[Ln(Lig)], Eu^III [4, 7]: 92%
conversion to 1,5-cz-[Ln(Lig)], Eu^III [4, 8]: 9%
conversion to 1,5-cz-[Ln(Lig)], Gd^III [4, 7]: 93%
conversion to 1,5-cz-[Ln(Lig)], Gd^III [4, 8]: 11%
conversion to 1,5-cz-[Ln(Lig)], Ho^III [4, 7]: 96%
conversion to 1,5-cz-[Ln(Lig)], Ho^III [4, 8]: 43%
conversion to 1,5-cz-[Ln(Lig)], La^III [4, 7]: 46%
conversion to 1,5-cz-[Ln(Lig)], La^III [4, 8]: 1%
conversion to 1,5-cz-[Ln(Lig)], Lu^III [4, 7]: 97%
conversion to 1,5-cz-[Ln(Lig)], Lu^III [4, 8]: 77%
conversion to 1,5-cz-[Ln(Lig)], Nd^III [4, 7]: 84%
conversion to 1,5-cz-[Ln(Lig)], Nd^III [4, 8]: 3%
conversion to 1,5-cz-[Ln(Lig)], Pr^III [4, 7]: 79%
conversion to 1,5-cz-[Ln(Lig)], Pr^III [4, 8]: 2%
conversion to 1,5-cz-[Ln(Lig)], Sm^III [4, 7]: 91%
conversion to 1,5-cz-[Ln(Lig)], Sm^III [4, 8]: 7%
conversion to 1,5-cz-[Ln(Lig)], Tb^III [4, 7]: 95%
conversion to 1,5-cz-[Ln(Lig)], Tb^III [4, 8]: 21%
conversion to 1,5-cz-[Ln(Lig)], Tm^III [4, 7]: 97%
conversion to 1,5-cz-[Ln(Lig)], Tm^III [4, 8]: 68%
conversion to 1,5-cz-[Ln(Lig)], Yb^III [4, 7]: 97%
conversion to 1,5-cz-[Ln(Lig)], Yb^III [4, 8]: 75%
